Where two headings read alike, the source gives them in different places.
Assays:
SARS-CoV-2 = experiment: microbe, parasite or virus in culture; assay type: cell-based; conditions: Severe acute respiratory syndrome coronavirus 2, VeroE6/TMPRSS2, 72 h, 50% SARS-CoV-2 infected cell death inhibitory concentration, VeroE6/TMPRSS2 cells, 3 days culture
SARS-CoV-2 3CL protease = SARS-CoV-2 3CL protease (Severe acute respiratory syndrome coronavirus 2, UniProt P0DTD1); experiment: biochemical; conditions: 50% SARS-CoV-2 3CL protease inhibitory concentration, read-out: IC50

Structure (SMILES) | EC50 (SARS-CoV-2; CellTiter-Glo 2.0) [nM] | EC50 (SARS-CoV-2; class symbols) [nM] | IC50 (SARS-CoV-2 3CL protease; given as class symbols) [nM] | IC50 (SARS-CoV-2 3CL protease; RapidFire MS) [nM]
Cc1nc2cc(Cl)c(Nc3nc(=O)n(Cc4cc5ccsc5[nH]c4=O)c(=O)n3Cc3cc(F)c(F)c(F)c3)cc2n1C [Compound I-0390] | 3160 | 1000 to 10000 | < 100 | 4
Cc1cncc(-n2c(=O)nc(Nc3cc4cn(C)nc4cc3F)n(Cc3cc(C#N)c(F)cc3Cl)c2=O)c1 [II-0053] | – | < 1000 | < 100 | –
Cn1cnc(Cn2c(=O)nc(Nc3cc4cn(CC(F)F)nc4cc3F)n(Cc3cc(F)c(F)cc3F)c2=O)n1 [II-0359] | – | 1000 to 10000 | < 100 | –
CCn1cc2cc(Nc3nc(=O)n(-c4cncc(C)c4)c(=O)n3Cc3cc(Cl)c(F)cn3)c(Cl)cc2n1 [II-0494] | 878 | – | – | 24
Cc1cc(F)c(F)cc1Cn1c(Nc2cc3cn(C)nc3cc2Cl)nc(=O)n(Cc2ncn(C)n2)c1=O [II-0406] | – | < 1000 | < 100 | –
Cn1cnc(Cn2c(=O)nc(Nc3cc4cn(CC(F)F)nc4cc3Cl)n(Cc3cc(Cl)c(F)cc3F)c2=O)n1 [II-0569] | 419 | – | – | 4.2
N#Cc1cc(Cn2c(Nc3cc4c(cc3Cl)OCC4)nc(=O)n(Cc3cc(F)c[nH]c3=O)c2=O)ccc1F [Compound I-0271] | – | 1000 to 10000 | < 100 | –
COc1cc(Cn2c(Nc3cc4cn(C)nc4cc3Cl)nc(=O)n(-c3cncc(C)c3)c2=O)ccc1F [II-0593] | – | 1000 to 10000 | < 100 | –
Cn1cnc(Cn2c(=O)nc(Nc3cc4cn(CCO)nc4cc3Cl)n(Cc3cc(Cl)c(F)cc3F)c2=O)n1 [II-0300] | – | 1000 to 10000 | < 100 | –
CNc1nc2ccc(Nc3nc(=O)n(-c4cncc(C)c4)c(=O)n3Cc3ccc(F)c(C#N)c3)cc2s1 [II-0313] | – | < 1000 | < 100 | –
CC(=O)Nc1nc2ccc(Nc3nc(=O)n(-c4cncc(C)c4)c(=O)n3Cc3ccc(F)c(C#N)c3)cc2s1 [II-0316] | – | 1000 to 10000 | < 100 | –
CN(C)C(=O)c1ccc(Cn2c(=O)nc(Nc3cc4cn(CC(F)F)nc4cc3Cl)n(Cc3cc(F)c(F)c(F)c3)c2=O)c(=O)[nH]1 [Compound I-0066] | – | 1000 to 10000 | < 100 | –
COc1ccc(Nc2nc(=O)n(Cc3ncn(C)n3)c(=O)n2Cc2cc(F)c(F)c(F)c2)c(Cl)c1 [Compound I-0346] | – | < 1000 | < 100 | –
Cn1cnc(Cn2c(=O)nc(Nc3cc4cn(C)nc4cc3Cl)n(Cc3cc(F)c(F)c(C#N)c3)c2=O)n1 [II-0184] | – | 1000 to 10000 | < 100 | –
Cc1cncc(-n2c(=O)nc(Nc3cc4c(F)n(C)nc4cc3Cl)n(Cc3cc(F)c(F)c(F)c3)c2=O)c1 [II-0464] | – | < 1000 | < 100 | –
COc1ccc(Nc2nc(=O)n(Cc3ccc[nH]c3=O)c(=O)n2Cc2cc(F)c(F)cc2Cl)cc1 [Compound I-0194] | – | 1000 to 10000 | < 100 | –
Cn1cnc(Cn2c(=O)nc(Nc3cc4cn(CC(F)F)nc4cc3Cl)n(Cc3cc(F)c(F)cc3F)c2=O)n1 [II-0163] | 342 | – | – | 8.8
Cn1cnc(Cn2c(=O)cc(Nc3cc4cn(C)nc4cc3Cl)n(Cc3cc(F)c(F)c(F)c3)c2=O)n1 [II-0430] | – | 1000 to 10000 | < 100 | –
Cc1cncc(-n2c(=O)nc(Nc3cc4cn(C(F)F)nc4cc3Cl)n(Cc3ccc(F)c(C#N)c3)c2=O)c1 [Compound I-0430] | – | < 1000 | < 100 | –
Cc1nc2ccc(Nc3nc(=O)n(-c4cncc5ccccc45)c(=O)n3Cc3ccc(F)c(C#N)c3)cc2s1 [II-0198] | – | < 1000 | < 100 | –
CCn1cc2cc(Nc3nc(=O)n(-c4cncc(C)c4)c(=O)n3Cc3ccc(F)c(C#N)c3)c(Cl)cc2n1 [II-0118] | 121 | – | – | 4.5

Structure (SMILES) | EC50 (SARS-CoV-2; CellTiter-Glo 2.0) [nM] | EC50 (SARS-CoV-2; class symbols) [nM] | IC50 (SARS-CoV-2 3CL protease; given as class symbols) [nM] | IC50 (SARS-CoV-2 3CL protease; RapidFire MS) [nM]
Cn1cc2cc(Nc3nc(=O)n(Cc4cc5ccsc5[nH]c4=O)c(=O)n3Cc3cc(F)c(F)c(F)c3)c(Cl)cc2n1 [Compound I-0110] | 321 | – | – | 4.2
CNc1nc2ccc(Nc3nc(=O)n(Cc4cc(Cl)c[nH]c4=O)c(=O)n3Cc3cc(F)c(F)c(F)c3)cc2s1 [II-0041] | – | 1000 to 10000 | < 100 | –
Cc1cncc(-n2c(=O)nc(Nc3ccc4nn(C)cc4c3)n(Cc3cc(F)c(F)cc3F)c2=O)c1 [II-0111] | 1910 | – | – | 78
O=c1[nH]cccc1Cn1c(=O)nc(Nc2cc3c(cc2Cl)nc2n3CCOC2)n(Cc2cc(F)c(F)c(F)c2)c1=O [Compound I-0457] | 5300 | – | – | 7.2
Cc1cncc(-n2c(=O)nc(Nc3ccc4nn(CC(F)F)cc4c3)n(Cc3cc(C#N)ccc3Cl)c2=O)c1 [II-0570] | 600 | – | – | 4.4
COc1ccc(Nc2nc(=O)n(-c3cncc4ccccc34)c(=O)n2Cc2cc(F)c(F)c(F)c2)cc1 [Compound I-0136] | – | 1000 to 10000 | < 100 | –
C[C@@H](O)Cn1cc2cc(Nc3nc(=O)n(Cc4cc(Cl)c[nH]c4=O)c(=O)n3Cc3cc(F)c(F)c(F)c3)c(Cl)cc2n1 [Compound I-0290] | – | 1000 to 10000 | < 100 | –
Cc1cncc(-n2c(=O)nc(Nc3cc4sc(NCC(F)F)nc4cc3Cl)n(Cc3ccc(F)c(C#N)c3)c2=O)c1 [II-0524] | – | 1000 to 10000 | < 100 | –
O=c1[nH]cccc1Cn1c(=O)nc(NC2CCS(=O)(=O)CC2)n(Cc2cc(F)c(F)c(F)c2)c1=O [Compound I-0038] | – | < 1000 | 1000 to 10000 | 1300
CNc1nc2cc(Cl)c(Nc3nc(=O)n(Cc4ncccn4)c(=O)n3Cc3cc(Cl)c(F)cc3F)cc2s1 [II-0239] | – | 1000 to 10000 | < 100 | –
CC(C)n1cc2cc(Nc3nc(=O)n(Cc4ncn(C)n4)c(=O)n3Cc3cc(F)c(F)cc3F)c(Cl)cc2n1 [II-0285] | – | < 1000 | < 100 | –
Cn1cc2cc(Nc3nc(=O)n(-c4cncc(C#N)c4)c(=O)n3Cc3ccc(F)c(C#N)c3)c(Cl)cc2n1 [II-0486] | – | 1000 to 10000 | < 100 | –
Cc1cncc(-n2c(=O)nc(Nc3cc4cn(CC(F)F)nc4cc3F)n(Cc3cc(F)c(F)c(Cl)c3)c2=O)c1 [II-0058] | – | < 1000 | < 100 | –
Cn1cnc(Cn2c(=O)cc(Nc3cc4cn(C(F)F)nc4cc3Cl)n(Cc3ccc(F)c(C#N)c3)c2=O)n1 [II-0433] | – | < 1000 | < 100 | –
Cc1cncc(-n2c(=O)nc(N3CC4CCC3CC4)n(Cc3cc(F)c(F)c(F)c3)c2=O)c1 [II-0369] | 1160 | – | – | 630
Cc1cncc(-n2c(=O)nc(Nc3ccc4ncccc4c3)n(Cc3ccc(F)c(C#N)c3)c2=O)c1 [II-0204] | – | 1000 to 10000 | < 100 | –
Cc1cncc(-n2c(=O)nc(Nc3ccc4nn(C(C)C)cc4c3)n(Cc3ccc(F)c(C#N)c3)c2=O)c1 [II-0038] | – | 1000 to 10000 | < 100 | –
Cn1cnc(Cn2c(=O)nc(Nc3cc4cn(CC5(NC(=O)OC(C)(C)C)CC5)nc4cc3Cl)n(Cc3cc(F)c(F)c(Cl)c3)c2=O)n1 [II-0565] | – | 1000 to 10000 | < 100 | –
Cc1cncc(-n2c(=O)nc(Nc3cc4cn(C)nc4cc3Cl)n(Cc3ccc(F)c(C#N)c3)c2=O)c1 [Compound I-0383] | 96 | – | – | 3.4
CNc1nc2cc(F)c(Nc3nc(=O)n(-c4cncc(C)c4)c(=O)n3Cc3cc(Cl)c(F)cc3F)cc2s1 [II-0385] | – | < 1000 | < 100 | –
Cc1c2cc(Nc3nc(=O)n(Cc4ncn(C)n4)c(=O)n3Cc3cc(F)c(F)c(Cl)c3)c(Cl)cc2nn1C [II-0438] | – | 1000 to 10000 | < 100 | –
